Data: patent US5968581A, “Dipeptide derivatives and sweetening agents” (Ajinomoto Co., Inc., priority 1997, dated 1999)
Read-outs that look alike come from different tables or passages of the source. Residues, ends and D or L forms follow the SMILES beside them.

Experiments:
[1] = pH 3
[2] = Stability (half-life) in acidic aqueous solution, pH 3 phosphate buffer at 70° C.
[3] = Sensory evaluation: degree of sweetness relative to sucrose; details: times that of 4% sucrose solution

SMILES | Stability (half-life, time corresponding to 50% degradation) [1] | Stability (half-life, time corresponding to 50% degradation) [2] [days] | Stability (half-life, time corresponding to 50% degradation) ([2]; listed as N-3,3-dimethylbutyl-α-L-aspartyl-α-methyl-L-tyrosine methyl. ester) | Degree of sweetness (relative to sugar) [3] [times] | Degree of sweetness (relative to sugar) ([3]; listed as N-3,3-dimethylbutyl-α-L-aspartyl-α-methyl-L-tyrosine methyl ester)
COC(=O)[C@H](Cc1ccccc1)NC(=O)[C@@H](N)CC(=O)O [aspartame] (H-Asp-Phe-OMe) | about 24 hours |  |  |  | 
COC(=O)[C@](C)(Cc1ccc(O)cc1)NC(=O)[C@H](CC(=O)O)NCCC(C)(C)C [Example 2, N-3,3-dimethylbutyl-α-L-aspartyl-α-methyl-L-tyrosine methyl ester] |  | 14.5 | about 347 hours | 700 | about 700 times
